Experimental findings from ChEMBL document CHEMBL3272295, “Drugs derived from cannabinoids. 5. delta6a,10a-Tetrahydrocannabinol and heterocyclic analogs containing aromatic side chains” (J Med Chem, 1976) are described below.

Active and inactive are the calls of the source. The rule behind the calls is not given here.

Data set [1] has as its system Mus musculus. The data set is described as follows: Increase in footshock-induced fighting behavior in albino BALB/cJ mouse at 5 mg/kg, po after 30 to 90 mins. The data set is classed as functional.
Data set [2] has as its system Rattus norvegicus. The data set is described as follows: Antipsychotic activity in rat assessed as reduction of methamphetamine-induced hyperactivity at 1 mg/kg, po administered prior to methamphetamine challenge relative to vehicle-treated control. The data set is classed as functional. Also noted: scale not given: the % may be the effect or the level left.
Data set [3] is filed under the species Rattus norvegicus. The data set is described as follows: animal or person. The format is functional. To be noted: Charles River, route oral.
Description: Antidiarrheal activity in Charles River rat assessed as inhibition of castor oil-induced diarrhea by measuring protected animals at 0.5 mg/kg, po administered 1 hr prior to castor oil challenge measured after 1 hr relative to vehicle-treated control
Data set [4] can be described thus: Acute toxicity in po dosed mouse. The format is organism-based. To be noted: in vivo.
Data set [5] deals with Felis catus. Briefly: Hypnotic activity in cat assessed as increase in total sleep time at 0.5 mg/kg administered orally through diet measured for 12 hrs by EEG analysis. The data set is classed as functional. To be noted: route oral.
The subject of data set [6] is Felis catus. The data set is described as follows: Hypnotic activity in cat assessed as increase in non-REM sleep time at 0.5 mg/kg administered orally through diet measured for 12 hrs by EEG analysis. To be noted: route oral. The data set is classed as functional.
The test system of data set [7] is Mus musculus. The data set is described as follows: Analgesic activity in po dosed mouse assessed as inhibition of acetic acid-induced writhing administered 30 mins prior to acetic acid challenge measured after 5 mins for 20 mins. The data set is classed as functional.
Data set [8] concerns Rattus norvegicus. The data set is described as follows: Analgesic activity in po dosed Sprague-Dawley rat after 15 to 90 mins by tail flick test. The data set is classed as functional.
Data set [9] relates to Rattus norvegicus. The data set is described as follows: Antianxiety activity in Long-Evans rat assessed as reduction in motor activity at 5 mg/kg, po after 2 hrs relative to vehicle-treated control. The format is functional. The arrangement: scale not given: the % may be the effect or the level left.
Data set [10] concerns Rattus norvegicus. Briefly: Antianxiety activity in Long-Evans rat assessed as reduction in motor activity at 10 mg/kg, po after 2 hrs relative to vehicle-treated control. Also noted: scale not given: the % may be the effect or the level left. The data set is classed as functional.
The test system of the next data set is Canis familiaris. The data set is described as follows: Antianxiety activity in po dosed dog assessed as ataxia administered as single dose measured up to 24 hrs. To be noted: Canis lupus familiaris, read-out: MED. The data set is classed as functional.
The test system of data set [11] is Rattus norvegicus. The data set is described as follows: Antipsychotic activity in rat assessed as reduction of methamphetamine-induced hyperactivity at 5 mg/kg, po administered prior to methamphetamine challenge relative to vehicle-treated control. The data set is classed as functional. Also noted: scale not given: the % may be the effect or the level left.
Data set [12] deals with Rattus norvegicus. The data set is described as follows: Antisecretory activity in Sprague-Dawley rat assessed as decrease in acid output at 50 mg/kg, po administered 30 mins prior to pylorus ligation measured after 4 hrs relative to control. The format is functional. The arrangement: scale not given: the % may be the effect or the level left.
For data set [13], the system named is Rattus norvegicus. The data set is described as follows: Increase in pepsin concentration in Sprague-Dawley rat at 50 mg/kg, po administered 30 mins prior to pylorus ligation measured after 4 hrs relative to control. The format is functional.
The test system of data set [14] is Rattus norvegicus. The data set is described as follows: Increase in pepsin output in Sprague-Dawley rat at 50 mg/kg, po administered 30 mins prior to pylorus ligation measured after 4 hrs relative to control. The format is functional.
The test system of data set [15] is Rattus norvegicus. The data set is described as follows: Antipsychotic activity in rat assessed as reduction of methamphetamine-induced hyperactivity at 10 mg/kg, po administered prior to methamphetamine challenge relative to vehicle-treated control. The format is functional. Also noted: scale not given: the % may be the effect or the level left.
The subject of data set [16] is Mus musculus. Briefly: Antidepressant activity in mouse assessed as potentiation of DOPA-induced effect at 5 mg/kg, po administered 4 hrs prior to DOPA challenge. The arrangement: dose 5 mg/kg. The data set is classed as functional, organism-based.
Data set [17] has as its system Mus musculus. The data set is described as follows: Anticonvulsant activity in po dosed mouse assessed as dose required to protect 80% of animal measured after 1 to 4 hrs by audiogenic seizure test. The data set is classed as functional.
The subject of data set [18] is Rattus norvegicus. Briefly: Antihypertensive activity in spontaneously hypertensive rat model assessed as reduction in blood pressure at 25 mg/kg, po after 3 hrs. The format is functional. Also noted: scale not given: the % may be the effect or the level left.
Data set [19] concerns Rattus norvegicus. The data set is described as follows: Antihypertensive activity in spontaneously hypertensive rat model assessed as reduction in blood pressure at 25 mg/kg, po after 24 hrs. Also noted: scale not given: the % may be the effect or the level left. The format is functional.
In data set [20] the test system is Rattus norvegicus. Briefly: Antihypertensive activity in spontaneously hypertensive rat model assessed as reduction in blood pressure at 10 mg/kg, po after 3 hrs. The format is functional. Also noted: scale not given: the % may be the effect or the level left.
The subject of data set [21] is Rattus norvegicus. The data set is described as follows: Antihypertensive activity in spontaneously hypertensive rat model assessed as reduction in blood pressure at 10 mg/kg, po after 24 hrs. The data set is classed as functional. Also noted: scale not given: the % may be the effect or the level left.
The subject of data set [22] is Felis catus. The data set is described as follows: Hypnotic activity in cat assessed as increase in total sleep time at 1 mg/kg administered orally through diet measured for 12 hrs by EEG analysis. The data set is classed as functional. To be noted: route oral.
Data set [23] deals with Felis catus. The data set is described as follows: Hypnotic activity in cat assessed as increase in total sleep time at 4 mg/kg administered orally through diet measured for 12 hrs by EEG analysis. The format is functional. To be noted: route oral.
Data set [24] deals with Felis catus. The data set is described as follows: Hypnotic activity in cat assessed as increase in non-REM sleep time at 1 mg/kg administered orally through diet measured for 12 hrs by EEG analysis. To be noted: route oral. The data set is classed as functional.
For data set [25], the system named is Felis catus. The data set is described as follows: Hypnotic activity in cat assessed as decrease in non-REM sleep time at 4 mg/kg administered orally through diet measured for 12 hrs by EEG analysis. The data set is classed as functional. To be noted: route oral.
In data set [26] the test system is Rattus norvegicus. The data set is described as follows: Increase in volume in Sprague-Dawley rat at 50 mg/kg, po administered 30 mins prior to pylorus ligation measured after 4 hrs relative to control. The data set is classed as functional.
Data set [27] has as its system Rattus norvegicus. The data set is described as follows: Antisecretory activity in Sprague-Dawley rat assessed as decrease in acidity at 50 mg/kg, po administered 30 mins prior to pylorus ligation measured after 4 hrs relative to control. The data set is classed as functional. Also noted: scale not given: the % may be the effect or the level left.
In data set [28] the test system is Mus musculus. Briefly: Antianxiety activity in albino BALB/cJ mouse assessed as reduction in footshock-induced fighting behavior at 10 mg/kg, po after 30 to 90 mins. The data set is classed as functional. The arrangement: scale not given: the % may be the effect or the level left.
Data set [29] deals with Rattus norvegicus. Briefly: Antianxiety activity in Long-Evans rat assessed as reduction in motor activity at 20 mg/kg, po after 2 hrs relative to vehicle-treated control. The format is functional. The arrangement: scale not given: the % may be the effect or the level left.
A further data set has as its system Rhesus monkey. Briefly: Antianxiety activity in po dosed rhesus monkey assessed as antiagressive behavior measured every hour post dosing. The data set is classed as functional. Conditions: Macaca mulatta, read-out: MED.

Consider `C#CCN1CCC2=C(C1)c1c(O)cc(C(C)C(C)CCc3ccc(F)cc3)cc1OC2(C)C` (configuration not stated), for which the Activity with Mus musculus [1] turned out to be 30%; in the data set on Rattus norvegicus [2], 23%; in the data set with Rattus norvegicus [9], 59%; in the data set on Rattus norvegicus [10] it was 73%; in the data set on Rattus norvegicus [11], 53%. The same compound registered an inhibition in vivo at 0.5 mg/kg in the data set listed under Rattus norvegicus [3] of 0%. Further, the LD50 in data set [4] was ≥ 1000 mg/kg. Besides, the Time is 58 min with Felis catus [5] and 60 min in the data set with Felis catus [6]. Also, the values for the ED50 with Mus musculus [7] and in the data set with Rattus norvegicus [8] were 4.4 mg/kg and 8.3 mg/kg, respectively. For the same compound, the minimal effective dose in the data set on Canis familiaris was 10 mg/kg.
Turning to `CCCCCc1cc(O)c2c(c1)OC(C)(C)[C@@H]1CCC(C)=C[C@@H]21` [DRONABINOL], the Activity in the data set on Rattus norvegicus [12] is 7.3%; in the data set on Rattus norvegicus [13], 8.2%; with Rattus norvegicus [14], 8.9%; in the data set on Rattus norvegicus [15], 41%; with Mus musculus [17], 20 mg/kg; in the data set on Rattus norvegicus [18], 39%. Besides, the Activity in the data set on Rattus norvegicus [19] was found to be 21%; with Rattus norvegicus [20] it was 6%; in the data set on Rattus norvegicus [21], 8%; with Rattus norvegicus [26], 0.7%; in the data set with Rattus norvegicus [27], 7.5%; in the data set on Mus musculus [28] it was 68%. Further, the Activity was 14% in the data set with Rattus norvegicus [9], 72% in the data set on Rattus norvegicus [29] and 15% in the data set on Rattus norvegicus [11]. The same compound gave an inhibition in vivo at 0.5 mg/kg in the data set listed under Rattus norvegicus [3] of 0%. For the same compound, the LD50 in data set [4] is ≥ 1000 mg/kg. The outcome with Mus musculus [16] was Active. In addition, the Time in the data set with Felis catus [22] is 29 min; in the data set with Felis catus [23] it was 17 min; with Felis catus [24], 1 min; in the data set on Felis catus [25], -3 min. Also, in the data set on Mus musculus [7], the median effective dose (ED50) amounted to 43 mg/kg. Besides, the figures for the minimal effective dose in the data set with Rhesus monkey and in the data set with Canis familiaris were 1 mg/kg and 0.5 mg/kg, respectively.
